This is an account of results in patent US4401827A, “Novel acyl-derivatives of carnitine and process for their preparation” (Sigma-Tau, priority 1978, dated 1983).

Read-outs that look alike come from different tables or passages of the source.

One may read the LD50 as the dose at which mortality reaches 50%. Read a high LD50 as lower toxicity.

Data set [1] can be described thus: acute toxicity (tolerance) i.p. in mice, Weil method. Conditions: mouse, in vivo, ip, Weil method (N = 5, K = 4). The text has this:
The tolerance of the Acyl-carnitines of the formula (I), as well as their salts administered by intraperitoneal route was investigated in mice using the Weil Method (1).
LD50, mg kg^-1 i.p. in mice,
of some acyl derivatives of formula (1).
Weil method (N = 5, K = 4)

Data set [2] has as its system rat's ventricle strip. The data set can be described thus: antiarrhythmic effect, isolated rat ventricle strip test. Conditions: for inhibition at 1 µM / activation at 1 µM: Rattus norvegicus, concentration 1·10^-6 M; for inhibition at 1 µM: decrease; for activation at 1 µM: increase. The text has this:
(2) M. Libonati and G. Segre, Archivio Italiano di Scienze Farmacologiche. Serie XIII, Vol. X, pag. 3, (1960)
effect of some acyl derivatives (concentration 1 · 10^-6
of the formula (1) on the rat's ventricle strip test.
% variation versus basal value.

Data set [3] has as its system arrhythmia induced by Aconitine in mice. The data set can be described thus: arrhythmia induced by Aconitine in mice. Conditions: for change in vivo at 300 mg/kg / change in vivo at 150 mg/kg / change in vivo at 75 mg/kg / change in vivo at 40 mg/kg / change in vivo at 89 mg/kg: Mus musculus, iv; for antiarrhythmic activity (in words): Aconitine, mice. Format: in vivo. The protocol:
The antiarrhythmic effect of the compounds was also investigated in mice according to the P. W. Nwangwu, T. Holcslow procedure (4). Using Aconitine (5 mg/ml) as arrhythmogenic agent, the changes in the cardiac rhythm of the animals were recorded and the onset time of initial arrhythmia and/or of ventricular tachycardia were used as End point.
Antiarrhythmic agents display an increase in the latency time of initial ECG change.
(4) P. W. Nvangvu, T. L. Holcslow, Arch. Int. Pharmacodyn. 229, 219 (1977)
on the arrhythmia induced by Aconitine (5 γ/ml) in mice.
% increase of the time to onset of initial cardiac arrythmia

[4] abbreviates: read-out: maximed frequency (- %), % variation versus basal value.
Where [5] appears, read: read-out: whole excitability (- %), % variation versus basal value.
Where [6] appears, read: read-out: refractory period (+ %), % variation versus basal value.
Setting [7] is: read-out: rheobase (+ %), % variation versus basal value.
The mark [8] stands for this setting: read-out: latency time increase % of controls, arrhythmias.
Setting [9] is: read-out: latency time increase % of controls, tachycardia.

The molecule `C[N+](C)(C)CC(CC(=O)[O-])OC(=O)CCCCl` (racemic) [d,l 4-Cl--butyryl CAR] had an LD50 in data set [1] of 850 mg/kg. Besides, the inhibition at 1 µM in data set [2] (setting [4]) is 60.2%; in data set [2] (setting [5]), 55.1%. For the same molecule, the activation at 1 µM in data set [2] (setting [6]) turned out to be 38.3%; in data set [2] (setting [7]), 35.2%. In addition, the “antiarrhythmic properties (in words)” value in data set [2] (isolated rat ventricle method) was “most clear out antiarrhythmic properties”. The change in vivo at 300 mg/kg in data set [3] (setting [8]) was 20%; in data set [3] (setting [9]), 10%.
In turn, `C[N+](C)(C)CC(CC(=O)[O-])OC(=O)C1CCCCC1` (racemic) [d,l cyclohexyl CAR] registered an LD50 in data set [1] of 850 mg/kg. Besides, the inhibition at 1 µM in data set [2] (setting [4]) was 22.1%; in data set [2] (setting [5]), 26.4%. Further, the activation at 1 µM in data set [2] (setting [6]) worked out at 15.8%; in data set [2] (setting [7]) it was 18.2%. For the same molecule, the figures for the change in vivo at 300 mg/kg in data set [3] (setting [8]) and in data set [3] (setting [9]) were 50% and 38%, respectively.
Molecule `C[N+](C)(C)CC(CC(=O)[O-])OC(=O)CCC1CCCCC1` (racemic) [d,l cyclohexylpropionyl CAR] gave an LD50 in data set [1] of 955 mg/kg. The inhibition at 1 µM worked out at 45.3% in data set [2] (setting [4]) and 25.5% in data set [2] (setting [5]). For the same molecule, the activation at 1 µM is 12.5% in data set [2] (setting [6]) and 22.4% in data set [2] (setting [7]). Further, in data set [3], the “antiarrhythmic activity (in words)” value is given as “markedly exhibited”. The values for the change in vivo at 150 mg/kg in data set [3] (setting [8]) and in data set [3] (setting [9]) were 70% and 55%, respectively.
On to `CCC(CC)C(=O)OC(CC(=O)[O-])C[N+](C)(C)C` (racemic) [d,l diethyl ACAR], for which the LD50 in data set [1] was 1200 mg/kg. The inhibition at 1 µM in data set [2] (setting [4]) turned out to be 25.1%; in data set [2] (setting [5]) it was 27.5%. For the same molecule, the activation at 1 µM stood at 31.2% in data set [2] (setting [6]) and 20.6% in data set [2] (setting [7]). The change in vivo at 300 mg/kg stood at 25% in data set [3] (setting [8]) and 32% in data set [3] (setting [9]).
In turn, `C[N+](C)(C)CC(CC(=O)[O-])OC(=O)C=Cc1cccc(Br)c1` (racemic) [d,l m-bromocinnamoyl CAR] came in with an LD50 in data set [1] of 650 mg/kg. Moreover, the inhibition at 1 µM in data set [2] (setting [4]) was determined as 28.5%; in data set [2] (setting [5]), 50.4%. Further, the activation at 1 µM in data set [2] (setting [6]) stood at 45.2%; in data set [2] (setting [7]) it was 38.1%. Also, the figures for the change in vivo at 150 mg/kg in data set [3] (setting [8]) and in data set [3] (setting [9]) were 40% and 28%, respectively.
In turn, `C[N+](C)(C)CC(CC(=O)[O-])OC(=O)Cc1ccc2ccccc2c1` (racemic) [d,l naphtalene ACAR] registered an LD50 in data set [1] of 880 mg/kg. Further, the inhibition at 1 µM is 41.2% in data set [2] (setting [4]) and 40.1% in data set [2] (setting [5]). Besides, the activation at 1 µM amounted to 39.3% in data set [2] (setting [6]) and 41.2% in data set [2] (setting [7]). Further, the change in vivo at 75 mg/kg was found to be 25% in data set [3] (setting [8]) and 10% in data set [3] (setting [9]).
In turn, `C[N+](C)(C)CC(CC(=O)[O-])OC(=O)C=Cc1ccc(Cl)cc1` (racemic) [d,l p-chlorocinnamoyl CAR] displayed an LD50 in data set [1] of 935 mg/kg. Also, the inhibition at 1 µM in data set [2] (setting [4]) worked out at 25.1%; in data set [2] (setting [5]), 22.2%. Further, the activation at 1 µM came to 22.3% in data set [2] (setting [6]) and 20.4% in data set [2] (setting [7]). For the same molecule, the change in vivo at 300 mg/kg in data set [3] (setting [8]) amounted to 25%; in data set [3] (setting [9]), 10%.
Molecule `CC(C)Cc1ccc(CC(=O)OC(CC(=O)[O-])C[N+](C)(C)C)cc1` (racemic) [d,l p-isobutyl phenyl ACAR] yielded an LD50 in data set [1] of 378 mg/kg. Besides, the inhibition at 1 µM in data set [2] (setting [4]) amounted to 38.2%; in data set [2] (setting [5]), 35.2%. Moreover, the activation at 1 µM in data set [2] (setting [6]) came out at 22.5%; in data set [2] (setting [7]), 22.2%. The change in vivo at 300 mg/kg is 20% in data set [3] (setting [8]) and 10% in data set [3] (setting [9]).
With `COc1ccc(C=CC(=O)OC(CC(=O)[O-])C[N+](C)(C)C)cc1` (racemic) [d,l p-methoxycinnamoyl CAR], the LD50 in data set [1] is 440 mg/kg. The inhibition at 1 µM came out at 22.2% in data set [2] (setting [4]) and 31.5% in data set [2] (setting [5]). In addition, the activation at 1 µM in data set [2] (setting [6]) came out at 36.1%; in data set [2] (setting [7]), 22.2%. Further, in data set [3], the “antiarrhythmic activity (in words)” value was “markedly exhibited”. Besides, the figures for the change in vivo at 150 mg/kg in data set [3] (setting [8]) and in data set [3] (setting [9]) were 70% and 56%, respectively.
On to `Cc1ccc(C=CC(=O)OC(CC(=O)[O-])C[N+](C)(C)C)cc1` (racemic) [d,l p-methylcinnamoyl CAR], for which, in data set [1], the LD50 stood at 620 mg/kg. Also, the results for the inhibition at 1 µM in data set [2] (setting [4]) and in data set [2] (setting [5]) were 38.6% and 71.1%, respectively. Moreover, the activation at 1 µM was 45.3% in data set [2] (setting [6]) and 32.4% in data set [2] (setting [7]). In addition, the change in vivo at 150 mg/kg came to 20% in data set [3] (setting [8]) and 9% in data set [3] (setting [9]).
Take `CC(C)(C)C(=O)OC(CC(=O)[O-])C[N+](C)(C)C` (racemic) [d,l pivaloyl CAR]: the LD50 in data set [1] worked out at 855 mg/kg. The inhibition at 1 µM in data set [2] (setting [4]) turned out to be 58.4%; in data set [2] (setting [5]) it was 65.5%. Moreover, the activation at 1 µM in data set [2] (setting [6]) was 40.6%; in data set [2] (setting [7]), 40.2%. For the same molecule, the change in vivo at 300 mg/kg in data set [3] (setting [8]) came to 20%; in data set [3] (setting [9]), 10%.
As for `C[N+](C)(C)CC(CC(=O)[O-])OC(=O)C=Cc1cccc(C(F)(F)F)c1` (racemic) [d,l trifluoromethylcinnamoyl CAR], the LD50 in data set [1] amounted to 845 mg/kg. Also, the results for the inhibition at 1 µM in data set [2] (setting [4]) and in data set [2] (setting [5]) were 41.3% and 24.3%, respectively. Besides, the values for the activation at 1 µM in data set [2] (setting [6]) and in data set [2] (setting [7]) were 25.7% and 19.5%, respectively. For the same molecule, the values for the change in vivo at 40 mg/kg in data set [3] (setting [8]) and in data set [3] (setting [9]) were 50% and 30%, respectively.
As for `C=C[C@H]1C[N@@]2CC[C@H]1C[C@@H]2[C@@H](O)c1ccnc2ccc(OC)cc12` [Quinidine, reference compound], the inhibition at 1 µM in data set [2] (setting [4]) was 72.5%; in data set [2] (setting [5]), 191%. The activation at 1 µM was determined as 57.4% in data set [2] (setting [6]) and 51.2% in data set [2] (setting [7]). For the same molecule, the change in vivo at 89 mg/kg in data set [3] (setting [8]) is 50%; in data set [3] (setting [9]) it was 41.7%.
In the case of `CCCC(CCC)C(=O)O[C@@H](CC(=O)[O-])C[N+](C)(C)C` [d dipropyl ACAR], the LD50 in data set [1] is 1600 mg/kg. The results for the inhibition at 1 µM in data set [2] (setting [4]) and in data set [2] (setting [5]) were 22.4% and 25.5%, respectively. Further, the activation at 1 µM in data set [2] (setting [6]) stood at 38.3%; in data set [2] (setting [7]) it was 21.7%. Also, the change in vivo at 40 mg/kg in data set [3] (setting [8]) was 50%; in data set [3] (setting [9]), 30%.
The molecule `C[N+](C)(C)C[C@@H](CC(=O)[O-])OC(=O)CCBr` [l 3-Br--propionyl CAR] displayed an LD50 in data set [1] of 960 mg/kg. The figures for the inhibition at 1 µM in data set [2] (setting [4]) and in data set [2] (setting [5]) were 50.5% and 60.2%, respectively. Moreover, the activation at 1 µM in data set [2] (setting [6]) is 45.1%; in data set [2] (setting [7]), 42.4%. In addition, the change in vivo at 150 mg/kg in data set [3] (setting [8]) turned out to be 25%; in data set [3] (setting [9]) it was 12%.
For `CC(C)(C)C(=O)O[C@H](CC(=O)[O-])C[N+](C)(C)C` [l pivaloyl CAR], in data set [1], the LD50 amounted to 618 mg/kg. Besides, the inhibition at 1 µM in data set [2] (setting [4]) came to 60.4%; in data set [2] (setting [5]), 48.1%. Moreover, the activation at 1 µM in data set [2] (setting [6]) amounted to 38.3%; in data set [2] (setting [7]) it was 35.1%. For the same molecule, the change in vivo at 300 mg/kg in data set [3] (setting [8]) was determined as 25%; in data set [3] (setting [9]), 15%.
In data set [1], `C[N+](C)(C)C[C@@H](CC(=O)[O-])OC(=O)C=Cc1cccc(C(F)(F)F)c1` [l trifluoromethylcinnamoyl CAR] registered an LD50 of 540 mg/kg. Also, the inhibition at 1 µM in data set [2] (setting [4]) was 32.7%; in data set [2] (setting [5]) it was 60.5%. Besides, the activation at 1 µM in data set [2] (setting [6]) amounted to 40.1%; in data set [2] (setting [7]), 39.2%. The change in vivo at 40 mg/kg was determined as 60% in data set [3] (setting [8]) and 45% in data set [3] (setting [9]).
